Measured values published in a melting point compilation (Tetko et al.; mined from patent text by program, amines drawn as free bases though some values may be those of a salt).

Work on `Cn1nc(C(F)(F)F)cc1Oc1cc(C#N)cc(Oc2cc(C(F)(F)F)nn2C)n1` yielded a melting point of 140 °C. Compound `CCOC(=O)c1cc(=O)c2c(OCCOc3ccc(NC(C)=O)cc3)cccc2o1` has a melting point of 220 to 222 °C. With `Cc1ccccc1Nc1c(N)cnc2ccccc12` the melting point was 156 to 158 °C. Work on `O=S(=O)(c1ccccc1)c1ccc(N2CCNCC2)cn1` yielded a melting point of 126 to 127 °C. `CC(=O)NCCCn1nnnc1S` showed a melting point of 152 to 154 °C. Compound `COc1ccc(C(=O)c2ccc(Cl)cc2F)c(Cl)c1Cl` has a melting point of 115 to 116 °C. In the case of `Cc1oc(-c2ccco2)nc1COc1ccc(CC(=O)O)cc1`, the melting point is reported as 139 to 140 °C. Work on `CCCCOC(=O)c1cc2c3ccccc3[nH]c(=O)n2n1` yielded a melting point of 190 to 195 °C. For `CCC(C)(C)c1cc(C(C)c2cc(C(C)(C)CC)cc(C(C)(C)CC)c2O)c(O)c(C(C)(C)CC)c1`, the melting point was 116 to 118 °C. With `O=C1Cc2cccc(Oc3cccc4ccccc34)c2N1` the melting point was 158 to 160 °C. `C=C(c1cc(F)ccc1O)n1ccnc1` gave a melting point of 164 to 166 °C. `N#Cc1cnn2c1N(C(=O)CN1CCN(C(=O)Nc3ccc(Cl)c(C(F)(F)F)c3)CC1)CC=C2c1cccc(C(F)(F)F)c1` showed a melting point of 214 to 216 °C. With `CCCC1CCC(c2ccc(-c3cc(F)c(C(F)(F)Oc4cc(F)c(C(F)(F)F)c(F)c4)c(F)c3)c(F)c2)CC1` (centres undefined) the melting point was 86 °C. Compound `O=C(Nc1ccc(C(F)(F)F)cc1)Nc1nc(Cl)cc(Cl)n1` has a melting point of 99 to 101 °C. With `COC1=C(C#N)C(c2ccccc2)=C2C(=O)N(C)C(c3ccccc3)=C12` the melting point was 210 to 212 °C. In the case of `COCc1ccc(C(=O)N[C@H](Cc2ccc(C(F)(F)F)cc2)[C@@H](O)c2ccc(F)cc2)c2ccccc12` (racemic), the melting point is reported as 170 to 171 °C. Work on `COc1ccc([N+](=O)[O-])c(-c2cc(OC)ccc2[N+](=O)[O-])c1` yielded a melting point of 148 to 149 °C. With `CCC(=O)OCOC(=O)c1cc(S(N)(=O)=O)c(Cl)cc1NCc1ccco1` the melting point was 141 to 142 °C. For `CCCCCCCC(=O)c1ccc(CCC(C)(CCOC(C)=O)NC(C)=O)cc1` (centres undefined), the melting point was 83 to 84 °C. `COc1cc(Nc2c(C#N)cnc3cc(C#Cc4cccnc4)sc23)c(Cl)cc1Cl` showed a melting point of 249 to 250 °C. `CCc1c(C(=O)c2cc(C)cc(C)c2)n(CC2CC=CC2)c(=O)[nH]c1=O` gave a melting point of 209 to 210 °C. With `Clc1c2ccccc2nc2c1cnn2-c1ccccn1` the melting point was 153 to 156 °C. `O=S(=O)(C=CC(=Nc1ccccc1)Oc1ccccc1)c1ccccc1` showed a melting point of 110 to 116 °C. Work on `CC(=O)n1nc(C2CCN(CCc3c(C)nc4c(C)cccn4c3=O)CC2)c2ccc(F)cc21` yielded a melting point of 210 °C. `N#CCc1cn(Nc2ccncc2)c2ccccc12` gave a melting point of 80 to 83 °C. In the case of `CN1CCN(C2=Nc3ccccc3-n3ccc4cc(Br)cc2c43)CC1`, the melting point is reported as 157 to 159 °C. `CC(C)c1ccc(C2(O)Cc3ccccc3C2=O)c(O)c1` (centres undefined) showed a melting point of 144 to 146 °C. Work on `COC(=O)c1cn2c(n1)COc1cc(C)c(Cl)cc1-2` yielded a melting point of 242 to 246 °C. For `Cc1ccc(Nc2nc(Cl)nc3ccccc23)cc1`, the melting point was 198 to 199 °C. For `O=C(CCCCCNC(=O)c1ccccc1S)Nc1cccnc1`, the melting point was 110 to 112 °C. Compound `N#Cc1ccc(C(=O)N[C@H]2CC[C@H](CCN3CCN(c4nccc5c4CCO5)CC3)CC2)cc1` has a melting point of 244 °C. `CON=C(Cn1c(=O)ccc2ccccc21)c1ccc(N2CCCC2)cc1` showed a melting point of 169 to 171 °C. `CC1=C(C#CC2=C(/C=C/C(C)=C/C(=O)O)CCC2)C(C)(C)CCC1` showed a melting point of 173 to 174 °C. `CNS(=O)(=O)c1ccc2c3c(cc([N+](=O)[O-])c2c1)N(C(=O)c1cc2cc(OCCN(C)C)ccc2[nH]1)CC3CCl` (centres undefined) gave a melting point greater than 350 °C. With `CC(C)(C)C1CC(=CO)C(Cl)=C(C=O)C1` (centres undefined) the melting point was 154 to 157 °C. With `CC(=O)SC1CN(C(C(=O)C2CC2)c2ccccc2F)C1` (centres undefined) the melting point was 49 to 52 °C. Compound `O=Cc1nn(-c2ccc(Cl)cc2)c2c1CCCC2` has a melting point of 117 to 118 °C. Compound `COc1ccccc1CNC(=O)c1ccc2nc(N[C@@H]3CCc4ccccc43)ccc2c1` has a melting point of 168 °C. For `O=c1[nH]c2cc(Cl)ccc2c(O)c1-c1ccc(OCc2ccccc2)cc1`, the melting point was greater than 350 °C. For `CCCC(=O)c1cnc2c(F)cccc2c1Nc1ccc(O)cc1C`, the melting point was 205 to 207 °C. Compound `O=[N+]([O-])c1cc(C(F)(F)F)c(Cl)c([N+](=O)[O-])c1NC1CC1` has a melting point of 86 to 87 °C. Compound `CCCCCCCCCCc1ccc(-c2ccc(OC)c(F)c2)cc1` has a melting point of 102 °C. Compound `N#Cc1ccc(Nc2nc(Cc3c(Cl)cccc3Cl)cc(NC(=O)CN3CCCCC3)n2)cc1` has a melting point of 175 to 180 °C. In the case of `CS(=O)(=O)c1ccc(-c2cnn(-c3cccc(Br)c3)c(=O)c2-c2ccc(F)cc2)cc1`, the melting point is reported as 210 to 212 °C. In the case of `CCNC(=O)c1cccc(-c2ccc3ncn(CCc4ccc(OC)c(OC)c4)c3n2)c1`, the melting point is reported as 152 to 153 °C. Work on `CC(C)c1cc(C(=O)Nc2ccc(C(=O)O)c(O)c2)sc1C(C)C` yielded a melting point of 129 to 130 °C. `CC(=O)OCC(=O)C1CCC2C3CCC4CC(OS(=O)(=O)c5ccc(C)cc5)CCC4(C)C3C(=O)CC12C` (centres undefined) gave a melting point of 155 to 156 °C. For `CC(C)NC(=O)Nc1ccc2c(c1)C(c1ccccc1F)=NCC(=O)N2C`, the melting point was 185 to 188 °C. In the case of `COc1ccc(-c2nc(S(=O)(=O)c3cccs3)[nH]c2-c2ccc(OC)cc2)cc1`, the melting point is reported as 179 °C.
